Experimental data reported in patent publication US8138189B2, “Substituted benzene compounds as modulators of the glucocorticoid receptor” (Hoffman-La Roche Inc., priority 2009, dated 2012).

Molecular target: T1, full length human recombinant glucocorticoid receptor (Homo sapiens, UniProt P04150)
T1 construct: partially purified full length human recombinant glucocorticoid receptor; purchased Panvera/Invitrogen PV4302
T1 sequence (P04150 1-777): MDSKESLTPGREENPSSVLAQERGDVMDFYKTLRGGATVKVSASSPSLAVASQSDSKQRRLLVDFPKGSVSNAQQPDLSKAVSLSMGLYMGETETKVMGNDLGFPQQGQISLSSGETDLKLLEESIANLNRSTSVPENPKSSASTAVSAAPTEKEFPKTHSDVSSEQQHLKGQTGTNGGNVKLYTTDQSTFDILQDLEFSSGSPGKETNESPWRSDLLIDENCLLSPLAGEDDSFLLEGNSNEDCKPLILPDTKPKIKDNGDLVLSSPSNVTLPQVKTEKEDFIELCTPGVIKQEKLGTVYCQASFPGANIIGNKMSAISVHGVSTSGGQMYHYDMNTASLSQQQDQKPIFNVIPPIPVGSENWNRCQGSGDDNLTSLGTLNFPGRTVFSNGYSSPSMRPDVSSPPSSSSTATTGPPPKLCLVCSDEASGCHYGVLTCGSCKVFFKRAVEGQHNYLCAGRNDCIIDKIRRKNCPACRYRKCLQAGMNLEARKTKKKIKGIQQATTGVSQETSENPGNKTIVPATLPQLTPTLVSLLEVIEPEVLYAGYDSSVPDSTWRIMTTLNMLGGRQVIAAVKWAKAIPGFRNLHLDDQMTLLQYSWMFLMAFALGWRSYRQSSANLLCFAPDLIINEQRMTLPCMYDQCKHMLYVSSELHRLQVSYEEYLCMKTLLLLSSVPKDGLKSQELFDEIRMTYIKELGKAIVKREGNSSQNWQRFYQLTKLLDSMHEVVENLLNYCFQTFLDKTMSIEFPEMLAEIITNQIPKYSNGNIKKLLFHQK
Assay: Glucocorticoid Receptor Binding Assay (fluorescence polarization competitor assay, Fluormone GS Far Red tracer)
Protocol: Glucocorticoid Receptor Binding Assay
The ability of the substances to bind to the glucocorticoid receptor was determined with the help of a commercial Glucocorticoid Receptor Competitor Assay far red kit provided by Panvera/Invitrogen (PV4302). This kit is used as provided by the supplier. It contains some partially purified full length human recombinant glucocorticoid receptor, a coactivator related GR stabilizing peptide, a tight-binding fluorescent GR ligand Fluormone™ GS Far Red as labeled tracer and a screening buffer. All reagents are prepared and the assay is run according to the recommendations of the kit manufacturer.
Briefly, the GR stabilizing peptide and the human recombinant glucocorticoid receptor are both diluted with the screening buffer (pH 7.4) and are gently mixed (no vortexing) just before the assay and kept on ice until use. The fluorescent-labeled ligand is also diluted with the screening buffer just before the assay and kept on ice until use. The substances to test are pre-diluted in pure DMSO then some water is added to get an intermediate 4.2% DMSO stock solution. Ten microliter of the intermediate stock solution is gently mixed with 5 μl of diluted fluorescent-labeled ligand and 5 μl of diluted human recombinant glucocorticoid receptor in a 384-well plate (low volume, ultraclear, glass plate from Greiner ref 788896). The plate is centrifuged, sealed and incubated for 3 hours at 22° C. in the dark. The polarized fluorescence is measured with a Zeiss-HTS reader or any equivalent equipment (610-660 nm).
All compounds were tested to determine IC50 in a serial dilution experiment. The concentration at which 50% inhibition of the fluorescent GR ligand Fluormone™ GS Far Red is obtained (the IC50) is determined after fitting with a sigmoidal dose-response model of a plot of the logarithm of the concentration versus percent inhibition measured for the different concentrations. Ki's were calculated from IC50 based on Cheng-Prusoff equation (Cheng, Y, Prusoff, W H (1973) Biochem Pharmacol 22, 3099-3108): Ki=IC50/[1+D/Kd] wherein D is the concentration of the fluorescent ligand and Kd is the binding constant for the fluorescent ligand binding to the receptor under the conditions used in the competition experiment.

Ki [nM] | SMILES
242 | C[C@H](c1ccc(-c2ccc(C(=O)O)cc2)cc1Cl)[C@@](O)(c1ccnc(-c2ccc(C(=O)O)cc2)c1)C(F)(F)F (stereo in doubt) [Example 57, 4′-{2-[2-(4-Carboxy-phenyl)-pyridin-4-yl]-3,3,3-trifluoro-2-hydroxy-1-methyl-propyl}-3′-chloro-biphenyl-4-carboxylic acid]
52.7 | COC(=O)c1cccc(COc2ccc(C(C)C(O)(c3cnc(C)cn3)C(F)(F)F)c(Cl)c2)c1 (stereo not drawn) [Example 3, 3-{3-Chloro-4-[3,3,3-trifluoro-2-hydroxy-1-methyl-2-(5-methyl-pyrazin-2-yl)-propyl]-phenoxymethyl}-benzoic acid methyl ester]
5.6 | CC(c1ccc(Oc2ccc(C(=O)O)c(F)c2)cc1Cl)C(O)(c1ccnc(Cl)c1)C(F)(F)F (stereo not drawn) [Example 83, 4-{3-Chloro-4-[2-(2-chloro-pyridin-4-yl)-3,3,3-trifluoro-2-hydroxy-1-methyl-propyl]-phenoxy}-2-fluoro-benzoic acid]
79.3 | C[C@@H](c1ccc(-c2ccc(CC(=O)O)cc2)cc1Cl)[C@](O)(c1ccc(=O)n(C)c1)C(F)(F)F (relative stereo) [Example 171, {3′-Chloro-4′-[3,3,3-trifluoro-2-hydroxy-1-methyl-2-(1-methyl-6-oxo-1,6-dihydro-pyridin-3-yl)-propyl]-biphenyl-4-yl}-acetic acid]
4.6 | C[C@@H](c1ccc(OCc2ccc(C3(C(=O)O)CC3)cc2)cc1Cl)[C@](O)(c1cnc2ccccc2c1)C(F)(F)F (stereo in doubt) [Example 143, 1-{4-[3-Chloro-4-(3,3,3-trifluoro-2-hydroxy-1-methyl-2-quinolin-3-yl-propyl)-phenoxymethyl]-phenyl}-cyclopropanecarboxylic acid]
0.2 | Cc1cc([C@@](O)([C@@H](C)c2ccc(Oc3ccc(C(=O)O)cc3F)cc2Cl)C(F)(F)F)cn(C)c1=O (relative stereo) [Example 216, 4-{3-Chloro-4-[2-(1,5-dimethyl-6-oxo-1,6-dihydro-pyridin-3-yl)-3,3,3-trifluoro-2-hydroxy-1-methyl-propyl]-phenoxy}-3-fluoro-benzoic acid]
121 | COC(=O)c1cccc(NC(=O)c2ccc([C@@H](C)[C@@](O)(c3ccnc(Cl)c3)C(F)(F)F)c(Cl)c2)c1 (relative stereo) [Example 40, 3-{3-Chloro-4-[2-(2-chloro-pyridin-4-yl)-3,3,3-trifluoro-2-hydroxy-1-methyl-propyl]-benzoylamino}-benzoic acid methyl ester]
47.9 | C[C@@H](c1cc(F)c(Oc2ccc(C(=O)O)c(F)c2)cc1Cl)[C@](O)(c1ccc(=O)n(C)c1)C(F)(F)F (stereo in doubt) [Example 202, 4-{5-Chloro-2-fluoro-4-[3,3,3-trifluoro-2-hydroxy-1-methyl-2-(1-methyl-6-oxo-1,6-dihydro-pyridin-3-yl)-propyl]-phenoxy}-2-fluoro-benzoic acid]
18.1 | C[C@@H](c1ccc(-c2ccc(C(=O)O)c(Cl)c2)cc1Cl)[C@](O)(c1ccc(=O)n(C)c1)C(F)(F)F (stereo in doubt) [Example 169, 3,3′-Dichloro-4′-[3,3,3-trifluoro-2-hydroxy-1-methyl-2-(1-methyl-6-oxo-1,6-dihydro-pyridin-3-yl)-propyl]-biphenyl-4-carboxylic acid]
418 | CCOC(=O)c1ccc(COc2ccc([C@@H](C)[C@@](O)(c3cnc(C)cn3)C(F)(F)F)c(Cl)c2)cc1 [Example 5, 4-{3-Chloro-4-[(1R,2R)-3,3,3-trifluoro-2-hydroxy-1-methyl-2-(5-methyl-pyrazin-2-yl)-propyl]-phenoxymethyl}-benzoic acid ethyl ester]
3.8 | CCOC(=O)c1cc(-c2ccc([C@H](C)[C@](O)(c3ccc(=O)n(C)c3)C(F)(F)F)c(Cl)c2)ccc1F (stereo in doubt) [Example 172, 3′-Chloro-4-fluoro-4′-[3,3,3-trifluoro-2-hydroxy-1-methyl-2-(1-methyl-6-oxo-1,6-dihydro-pyridin-3-yl)-propyl]-biphenyl-3-carboxylic acid ethyl ester]
267 | COc1cc(C(=O)O)ccc1COc1ccc(C(C)C(O)(c2cnn3ccccc23)C(F)(F)F)c(Cl)c1 (stereo not drawn) [Example 129, 4-[3-Chloro-4-(3,3,3-trifluoro-2-hydroxy-1-methyl-2-pyrazolo[1,5-a]pyridin-3-yl-propyl)-phenoxymethyl]-3-methoxy-benzoic acid]
7.1 | C[C@H](c1ccc(Oc2ccc(CC(=O)O)cc2)cc1Cl)[C@@](O)(c1ccc(=O)n(C)c1)C(F)(F)F (stereo in doubt) [Example 158, (4-{3-Chloro-4-[3,3,3-trifluoro-2-hydroxy-1-methyl-2-(1-methyl-6-oxo-1,6-dihydro-pyridin-3-yl)-propyl]-phenoxy}-phenyl)-acetic acid]
337 | C[C@H](c1ccc(C(=O)Nc2ccn(CC(=O)O)n2)cc1Cl)[C@@](O)(c1ccnc(Cl)c1)C(F)(F)F (stereo in doubt) [Example 35, (3-{3-Chloro-4-[2-(2-chloro-pyridin-4-yl)-3,3,3-trifluoro-2-hydroxy-1-methyl-propyl]-benzoylamino}-pyrazol-1-yl)-acetic acid]
1580 | C[C@H](c1cc(Oc2cnc(C(=O)O)cn2)ccc1Cl)[C@@](O)(c1ccnc(Cl)c1)C(F)(F)F (stereo in doubt) [Example 137, 5-{4-Chloro-3-[2-(2-chloro-pyridin-4-yl)-3,3,3-trifluoro-2-hydroxy-1-methyl-propyl]-phenoxy}-pyrazine-2-carboxylic acid]
245 | CCOC(=O)C1CCN(C(=O)c2ccc([C@@H](C)[C@@](O)(c3ccnc(Cl)c3)C(F)(F)F)c(Cl)c2)CC1 (stereo in doubt) [Example 32, 1-{3-Chloro-4-[2-(2-chloro-pyridin-4-yl)-3,3,3-trifluoro-2-hydroxy-1-methyl-propyl]-benzoyl}-piperidine-4-carboxylic acid ethyl ester]
33.5 | Cc1cnc([C@](O)([C@H](C)c2ccc(OCc3ccc(CC(=O)O)cc3)cc2Cl)C(F)(F)F)cn1 (stereo in doubt) [Example 12, (4-{3-Chloro-4-[3,3,3-trifluoro-2-hydroxy-1-methyl-2-(5-methyl-pyrazin-2-yl)-propyl]-phenoxymethyl}-phenyl)-acetic acid]
214 | Cc1cc(C(O)(C(C)c2ccc(-c3ccc(C(=O)O)nc3)cc2Cl)C(F)(F)F)ccn1 (stereo not drawn) [Example 65, 5-{3-Chloro-4-[3,3,3-trifluoro-2-hydroxy-1-methyl-2-(2-methyl-pyridin-4-yl)-propyl]-phenyl}-pyridine-2-carboxylic acid]
1.9 | CCOC(=O)c1cc(Oc2ccc([C@H](C)[C@](O)(c3cc(C)c(=O)n(C)c3)C(F)(F)F)c(Cl)c2)ccc1F (stereo in doubt) [Example 212, 5-{3-Chloro-4-[2-(1,5-dimethyl-6-oxo-1,6-dihydro-pyridin-3-yl)-3,3,3-trifluoro-2-hydroxy-1-methyl-propyl]-phenoxy}-2-fluoro-benzoic acid ethyl ester]
29.4 | C[C@H](c1ccc(-c2ccc(CCC(=O)O)cc2)cc1Cl)[C@@](O)(c1ccnc(Cl)c1)C(F)(F)F (stereo in doubt) [Example 55, 3-{3′-Chloro-4′-[2-(2-chloro-pyridin-4-yl)-3,3,3-trifluoro-2-hydroxy-1-methyl-propyl]-biphenyl-4-yl}-propionic acid]
47.1 | CCOC(=O)c1ccc(COc2ccc(C(C)C(O)(c3ccncc3)C(F)(F)F)c(Cl)c2)cc1 (stereo not drawn) [Example 106, 4-[3-Chloro-4-(3,3,3-trifluoro-2-hydroxy-1-methyl-2-pyridin-4-yl-propyl)-phenoxymethyl]-benzoic acid ethyl ester]
